Experimental data from patent publication US20080306115A1, “Midazole-4-Carboxamide Derivatives For Use As Cb1 Modulators” (priority 2005, published 2008).

Target: T1, CB1 receptor (Homo sapiens, UniProt P21554)
T1 construct: expressed in transfected cells
Assay: [35S]-GTPγS binding assay on membranes from cells stably transfected with the CB1 gene, antagonism of CP55940
Format: biochemical
Conditions: half maximal inhibition of GTPγS binding, EC80 concentration of agonist CP55940, 30° C., 45 min
Protocol: 10 μg of membranes prepared from cells stably transfected with the CB1 gene were suspended in […] of 100 mM NaCl, 5 mM MgCl2, 1 mM EDTA, 50 mM HEPES (pH 7.4), 1 mM DTT, 0.1% BSA and 100 μM GDP. To this was added an EC80 concentration of agonist (CP55940), the required concentration of test compound and 0.1 μCi [^35S]-GTPγS. The reaction was allowed to proceed at 30° C. for 45 min. Samples were then transferred on to GF/B filters using a cell harvester and washed with wash buffer (50 mM Tris (pH 7.4), 5 mM MgCl2, 50 mM NaCl). Filters were then covered with scintilant and counted for the amount of [^35S]-GTPγS retained by the filter.
Activity is measured in the absence of all ligands (minimum activity) or in the presence of an EC80 concentration of CP55940 (maximum activity). These activities are set as 0% and 100% activity respectively. At various concentrations of novel ligand, activity is calculated as a percentage of the maximum activity and plotted. The data are fitted using the equation y=A+((B−A)/1+((C/x) ÙD)) and the IC50 value determined as the concentration required to give half maximal inhibition of GTPγS binding under the conditions used.

T1 sequence (P21554 whole entry): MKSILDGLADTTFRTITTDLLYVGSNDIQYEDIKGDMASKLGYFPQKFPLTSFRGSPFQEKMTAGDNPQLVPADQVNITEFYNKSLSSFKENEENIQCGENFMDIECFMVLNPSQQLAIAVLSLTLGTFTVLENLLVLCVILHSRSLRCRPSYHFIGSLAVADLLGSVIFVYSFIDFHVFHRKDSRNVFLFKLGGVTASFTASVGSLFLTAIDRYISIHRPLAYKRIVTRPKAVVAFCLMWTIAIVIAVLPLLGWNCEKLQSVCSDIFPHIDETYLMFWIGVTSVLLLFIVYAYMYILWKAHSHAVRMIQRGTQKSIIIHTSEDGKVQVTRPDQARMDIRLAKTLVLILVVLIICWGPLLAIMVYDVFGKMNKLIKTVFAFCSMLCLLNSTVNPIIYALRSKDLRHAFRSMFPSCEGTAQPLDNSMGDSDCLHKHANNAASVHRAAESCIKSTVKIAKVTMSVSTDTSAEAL

SMILES: Cc1c(C(=O)Nc2ccc(F)nc2)nc(-c2ccc(Cl)cc2Cl)n1-c1ccc(OS(=O)(=O)CCC(F)(F)F)cc1 [Example 3, 4-(2-(2,4-dichlorophenyl)-4-{[(6-fluoropyridin-3-yl)amino]carbonyl}-5-methyl-1H-imidazol-1-yl)phenyl 3,3,3-trifluoropropane-1-sulfonate]
- IC50: 1.2 nM
